These molecules were tested against T1, PsPto-PscA-LBD (Pseudomonas syringae group genomosp. 3, UniProt Q882Z2) (assay: isothermal titration calorimetry). Details: read-out: Mean KD (μM) ± SEM.
T1 construct: host E. coli BL21(DE3)
Type: binding
Description: isothermal titration calorimetry on PsPto-PscA-LBD

T1 sequence (Q882Z2 30-278): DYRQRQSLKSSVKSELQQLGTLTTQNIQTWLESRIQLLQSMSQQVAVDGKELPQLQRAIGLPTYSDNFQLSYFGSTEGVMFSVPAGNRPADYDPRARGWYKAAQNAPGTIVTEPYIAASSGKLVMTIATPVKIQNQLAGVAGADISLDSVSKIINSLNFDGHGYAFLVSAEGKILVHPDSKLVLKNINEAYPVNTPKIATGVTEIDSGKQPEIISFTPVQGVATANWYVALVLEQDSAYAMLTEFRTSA

Compound	Kd
N[C@@H](CC(=O)O)C(=O)O [L-Asp]	1.2 ± 0.1 µM
N[C@H](CC(=O)O)C(=O)O [D-Asp]	1.2 ± 0.1 µM
N[C@@H](CCC(=O)O)C(=O)O [L-Glu]	3.4 ± 0.1 µM

From PMC6775455, “Chemoperception of Specific Amino Acids Controls Phytopathogenicity in Pseudomonas syringae pv. tomato” (mBio, 2019)
